Source: US20190255199A1, “NON-INVASIVE DIAGNOSTIC IMAGING AGENT FOR HEART DISEASE” (Nihon Medi-Physics Co., Ltd., priority 2016, published 2019)

Columns and labels:
[1] = tested on: heart tissue section of an ischemic heart disease model rat; assay: In vitro autoradiography using ischemic heart disease model rat (Example 3); format: binding; conditions: for accumulation in the presence of an excessive amount of non-labeled compound (binding specificity): 5 μmol/L non-labeled compound (Compound 1 or Compound 2) added, FIG. 4(e)-(h) / FIG. 5(c),(d); for ratio of ischemia reperfusion site signal intensity/non-ischemic site signal intensity: ROI on autoradiograms, n=4, FIG. 7; for accumulation in lesion region on in vitro autoradiogram: sections immersed in labeled compound solution 30 minutes at room temperature, FIG. 4 / FIG. 5
Protocol: (§1) The chest of each Wistar rat (male) was opened under isoflurane anesthesia, and the left coronary artery was ligated for 30 minutes, followed by reperfusion. The chest was closed to prepare an ischemic heart disease model rat. Approximately 1 week after the operation, the rat was sacrificed under anesthesia, and the heart was taken out thereof. Sections of 5 μm in thickness were prepared from the base side of the heart. Immunostaining was carried out using the prepared sections to confirm the expression and distribution of CPY11B2. As an anti-CYP11B2 antibody, one prepared according to the method described in Ogishima T et al., Endocrinology, 1992, vol. 130, pp. 2971-7 was used. As a secondary antibody, HRP Labelled Polymer Anti-Rabbit (manufactured by Dako/Agilent Technologies, Inc.) was used. CYP11B2 expression sites were detected by applying DAB+(3,3′-diaminobenzidine tetrahydrochloride) substrate kit (manufactured by Dako/Agilent Technologies, Inc.) to the HRP bound to the secondary antibody.
Each ischemic heart disease model rat was prepared in the same way as in Example 1. The rat was sacrificed under isoflurane anesthesia between 1 and 3 weeks after the operation. Then, the heart was harvested, and 5 μm sections were prepared and preserved at −80° C. until they were used. The sections were brought back to room temperature from −80° C., dried for 30 minutes or longer, then immersed in phosphate-buffered saline for 30 minutes, and subsequently immersed in phosphate-buffered saline containing 1 w/v % bovine serum albumin for 30 minutes for hydrophilization. Each phosphate-buffered saline containing 1 w/v % bovine serum albumin and further containing Compound [^18F] 1 (radioactivity concentration: approximately 40 kBq/mL) or Compound [^123I] 2 (radioactivity concentration: approximately 10 kBq/mL) was prepared, and the hydrophilized sections were immersed therein at room temperature for 30 minutes. Then, the sections were washed by immersing for 5 minutes each in phosphate-buffered saline containing 1 w/v % bovine serum albumin, phosphate-buffered saline, and phosphate-buffered saline. The sections thus washed were thoroughly dried and then exposed to light for approximately 3 hours as to Compound [^18F] 1 and for approximately 16 hours as to Compound [^123I] 2 on an imaging plate (BAS-SR2040, manufactured by Fujifilm Corp.). Autoradiograms were obtained using a fluoro image analyzer (FLA-7000, manufactured by GE Healthcare Corp.).
Also, autoradiograms were obtained by immersing the sections in a solution containing Compound [^18F] 1 together with 5 μmol/L of Compound 1, or a solution containing Compound [^123I] 2 together with 5 μmol/L of Compound 2 in the same way as above.
The same experiment as above was conducted using the heart harvested from a normal rat.
ROI was established at an ischemia reperfusion site and a non-ischemic site as to the autoradiography of Compound [^18F] 1 and Compound [^123I] 2, and the ratio of signal intensity was compared between these sites. FIG. 7(a) is one example of an autoradiogram of the section immersed in Compound [^18F] 1. FIG. 7(c) is one example of an autoradiogram of the section immersed in Compound [^123I] 2. In both FIGS. 7(a) and 7(c), ROI of the ischemia reperfusion site is surrounded with the solid line, and ROI of the non-ischemic site is surrounded with the broken line. […] 1 in each rat. […] 2 in each rat. […] 1 and Compound [^123I] 2 at the ischemia reperfusion site compared with the non-ischemic site was observed. Higher accumulation of Compound [^123I] 2 than that of Compound [^18F] 1 was also observed.

[2] = tested on: ischemic heart disease model rat; assay: Ex vivo autoradiography using ischemic heart disease model rat (Example 2); format: in vivo
Protocol: as §1
Each ischemic heart disease model rat was prepared in the same way as in Example 1. Compound [^18F] 1 was administered thereto (approximately 50 MBq/rat) between 1 and 3 weeks after the operation. 20 minutes after the administration, the rat was sacrificed under anesthesia, and the heart was taken out thereof. […]

[3] = tested on: normal rat; assay: SPECT imaging experiment using normal rat (Example 5); format: in vivo; conditions: approximately 100 MBq/rat, imaging started 150 minutes after administration, FIG. 9(a)-(c)
Protocol: Each ischemic heart disease model rat was prepared in the same way as in Example 1. Compound [^123I] 2 was administered thereto (approximately 100 MBq/rat) in one week after the operation. Static imaging for approximately 8 minutes was started at 150 minutes after the administration using a SPECT apparatus for animals (FX3000, manufactured by TriFoil Imaging). Data collection was carried out in an energy window of 143 to 175 keV, and the collected data was reconstituted by OSEM (Ordered Subset Expectation Maximization) to obtain images. Computed tomography imaging was carried out in order to identify the position of the heart. The same experiment as above was conducted using a normal rat.

[4] = tested on: ischemic heart disease model rat; assay: SPECT imaging experiment using ischemic heart disease model rat (Example 5); format: in vivo; conditions: approximately 100 MBq/rat, one week after operation, static imaging started 150 minutes after administration, FIG. 9(d)-(f)
Protocol: as §1
Each ischemic heart disease model rat was prepared in the same way as in Example 1. Compound [^123I] 2 was administered thereto (approximately 100 MBq/rat) in one week after the operation. Static imaging for approximately 8 minutes was started at 150 minutes after the administration using a SPECT apparatus for animals (FX3000, manufactured by TriFoil Imaging). […]

[5] = tested on: heart tissue section of an ischemic heart disease model rat; assay: Influence of elapsed time after ischemic heart disease model rat preparation on compound accumulation, in vitro autoradiography (Example 4); format: binding; conditions: normal rat and 1 day, 3 days, 1 week after the operation, FIG. 8(a)
Protocol: as §1
(§2) Each ischemic heart disease model rat was prepared in the same way as in Example 1. The rat was sacrificed under isoflurane anesthesia 1 day (3 rats), 3 days (4 rats) or 1 week (4 rats) after the operation. […] 2 (radioactivity concentration: approximately 10 kBq/mL) was prepared, and the hydrophilized sections were immersed therein at room temperature for 30 minutes. […]

[6] = tested on: heart tissue section of a hypertensive heart disease model rat; assay: In vitro autoradiography using hypertensive heart disease model rat (Example 9); format: binding
Protocol: Each DIS/Eis (Dahl-Iwai S) rat (male, Japan SLC, Inc.) was fed with 8% NaCl diet (Oriental Yeast Co., Ltd.) from the age of 5 weeks, raised up to the age of 11 weeks, and then sacrificed under anesthesia, and the heart was taken out thereof. Sections of 5 μm in thickness were prepared. Immunostaining was carried out using the prepared sections to confirm the expression and distribution of CPY11B2. As an anti-CYP11B2 antibody, one prepared according to the method described in Ogishima T et al., Endocrinology, 1992, vol. 130, pp. 2971-7 was used. As a secondary antibody, HRP Labelled Polymer Anti-Rabbit (manufactured by Dako/Agilent Technologies, Inc.) was used. CYP11B2 expression sites were detected by applying DAB+(3,3′-diaminobenzidine tetrahydrochloride) substrate kit (manufactured by Dako/Agilent Technologies, Inc.) to the HRP bound to the secondary antibody. The same experiment as above was conducted using the heart harvested from a DIS/Eis rat raised with a NaCl-free diet (normal rat).
Each hypertensive heart disease model rat was prepared in the same way as in Example 8. The heart was harvested, and 5 μm-thick sections were prepared and preserved at −80° C. until they were used. […] 3 (radioactivity concentration: approximately 10 kBq/mL) was prepared, and the hydrophilized sections were immersed therein at room temperature for 30 minutes. […]

[7] = tested on: heart tissue section of a myocarditis model rat; assay: In vitro autoradiography using myocarditis model rat (Example 7); format: binding
[8] = tested on: heart tissue section of an ischemic heart disease model rat; assay: In vitro autoradiography using ischemic heart disease model rat (Example 10); format: binding; conditions: ischemic heart disease model rat one week after operation, approximately 10 kBq/mL, FIG. 14
Protocol: as §1
as §2, with “in one” for “1 day (3 rats), 3 days (4 rats) or 1”, “week” for “week (4 rats)”, “3” for “2”

Fc1cc2nc(-c3cncc(Cn4ccnc4)c3)n(CC[18F])c2cc1Cl [Compound [^18F] 1, 6-chloro-5-fluoro-1-(2-[^18F]fluoroethyl)-2-[5-(imidazol-1-ylmethyl)pyridin-3-yl]benzimidazole]
accumulation in the presence of an excessive amount of non-labeled compound (binding specificity) [1]: inhibited by the addition of an excessive amount of a non-labeled compound, suggesting that the binding is specific
ratio of ischemia reperfusion site signal intensity/non-ischemic site signal intensity [1]: increased accumulation
accumulation in lesion region on in vitro autoradiogram [1]: accumulation of Compound [^18F] 1 in a lesion region was confirmed
staining findings at the position corresponding to the accumulation site ([2]; HE, Masson trichrome and CYP11B2 immunostaining of adjacent section, FIG. 3): inflammatory reaction, fibrosis, and CYP11B2 expression were also confirmed at a position corresponding to the accumulation site
accumulation in the heart on ex vivo autoradiogram ([2]; approximately 50 MBq/rat, 1 to 3 weeks after operation, heart taken 20 minutes after administration, FIG. 2): local accumulation of Compound [^18F] 1 was confirmed

FCCn1c(-c2cncc(Cn3ccnc3)c2)nc2ccc([123I])cc21 [Compound [^123I] 2, 1-(2-fluoroethyl)-2-[5-{(imidazol-1-yl)methyl}pyridin-3-yl]-6-[^123I]iodobenzimidazole]
accumulation in the heart on SPECT image [3]: not observed in the heart of the normal rat
accumulation in the presence of an excessive amount of non-labeled compound (binding specificity) [1]: inhibited by the addition of an excessive amount of a non-labeled compound, suggesting that the binding is specific
agreement of accumulation with fibrosis region ([1]; Masson trichrome staining of the same section, FIG. 6): in good agreement with a fibrosis region
ratio of ischemia reperfusion site signal intensity/non-ischemic site signal intensity [1]: increased accumulation
accumulation in lesion region on in vitro autoradiogram [1]: accumulation of Compound [^123I] 2 in a lesion region was confirmed
accumulation compared between the two labeled compounds ([1]; signal intensity ratio, FIG. 7(b) versus 7(d)): Higher accumulation of Compound [^123I] 2 than that of Compound [^18F] 1
accumulation in the heart on SPECT image [4]: confirmed in the heart of the ischemic heart disease model rat
ratio of ischemia reperfusion site signal intensity/non-ischemic site signal intensity with elapsed time [5]: increased with elapsed time after the operation

Cn1c(-c2cncc(Cn3ccnc3)c2)nc2ccc([123I])cc21 [Compound [^123I] 3, 2-[5-{(1H-imidazol-1-yl)methyl}pyridin-3-yl]-6-[^123I]iodo-1-methyl-1H-benz[d]imidazole]
agreement of accumulation with fibrosis region ([6]; Masson trichrome staining of adjacent section, FIG. 13): in good agreement with a fibrosis region
accumulation in heart tissue section compared with normal rat ([6]; approximately 10 kBq/mL, FIG. 13(a),(b)): increased accumulation
agreement of accumulation with fibrosis region ([7]; Masson trichrome staining of adjacent section, FIG. 11): in good agreement with a fibrosis region
accumulation in heart tissue section compared with normal rat ([7]; approximately 10 kBq/mL, FIG. 11(a),(b)): increased accumulation
accumulation in lesion region compared with normal rat [8]: increased accumulation
